Results reported in ChEMBL document CHEMBL1201861, “Genomics of Drug Sensitity in Cancer screening data, Wellcome Trust Sanger Institute”.

How the values were obtained:
A-375 = assay: cells; format: functional, cell-based; details: Homo sapiens;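 note: growth inhibition of A375 cells, read out with a cell viability assay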
Description: SANGER: Inhibition of human A375 cell growth in a cell viability assay.

HCC1954 = assay: cells; format: functional, cell-based; details: Homo sapiens;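 note: growth inhibition of human HCC1954 cells, read out with a cell viability assay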
Description: SANGER: Inhibition of human HCC1954 cell growth in a cell viability assay.

KYSE-180 = assay: cells; format: functional, cell-based; details: Homo sapiens;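 note: growth inhibition of KYSE-180 cells, read out with a cell viability assay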
Description: SANGER: Inhibition of human KYSE-180 cell growth in a cell viability assay.

BL-41 = assay: cells; format: functional, cell-based; details: Homo sapiens;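 note: growth inhibition of human BL-41 cells, read out with a cell viability assay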
Description: SANGER: Inhibition of human BL-41 cell growth in a cell viability assay.

U-118-MG = assay: cells; format: functional, cell-based; details: Homo sapiens
Description: SANGER: Inhibition of human U-118-MG cell growth in a cell viability assay.

MFE-280 = assay: cells; format: functional, cell-based; details: Homo sapiens;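 note: growth inhibition of MFE-280 cells, determined with a cell viability readout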
Description: SANGER: Inhibition of human MFE-280 cell growth in a cell viability assay.

HT-3 = assay: cells; format: functional, cell-based; details: Homo sapiens;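 note: growth inhibition measured with a cell viability readout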
Description: SANGER: Inhibition of human HT-3 cell growth in a cell viability assay.

GCT = assay: cells; format: functional, cell-based; details: Homo sapiens;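 note: GCT cell line proliferation inhibition, read out with a cell viability assay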
Description: SANGER: Inhibition of human GCT cell growth in a cell viability assay.

CESS = assay: SANGER: Inhibition of human CESS cell growth in a cell viability assay.; format: functional, cell-based
HSC-4 = assay: cells; format: functional, cell-based; details: Homo sapiens;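 note: growth inhibition of human HSC-4 cells, read out with a cell viability assay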
Description: SANGER: Inhibition of human HSC-4 cell growth in a cell viability assay.

KYSE-270 = assay: cells; format: functional, cell-based; details: Homo sapiens;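 note: cell growth inhibition measured with a viability assay in the human KYSE-270 line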
Description: SANGER: Inhibition of human KYSE-270 cell growth in a cell viability assay.

T84 = assay: cells; format: functional, cell-based; details: Homo sapiens;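 note: growth inhibition measured with a cell viability readout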
Description: SANGER: Inhibition of human T84 cell growth in a cell viability assay.

CAKI-1 = assay: cells; format: functional, cell-based; details: Homo sapiens;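 note: growth inhibition of CAKI-1 cells, measured by a cell viability assay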
Description: SANGER: Inhibition of human CAKI-1 cell growth in a cell viability assay.

NCI-H358 = assay: cells; format: functional, cell-based; details: Homo sapiens;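 note: growth inhibition of NCI-H358 human cells, read out with a cell viability assay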
Description: SANGER: Inhibition of human NCI-H358 cell growth in a cell viability assay.

U2OS = assay: cells; format: functional, cell-based, U-2-OS; details: Homo sapiens;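 note: growth inhibition of human U-2-OS cells, determined with a cell viability assay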
Description: SANGER: Inhibition of human U-2-OS cell growth in a cell viability assay.

OVCAR-8 = assay: cells; format: functional, cell-based; details: Homo sapiens;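 note: growth inhibition of human OVCAR-8 cells, read out by a cell viability assay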
Description: SANGER: Inhibition of human OVCAR-8 cell growth in a cell viability assay.

SKG-IIIa = assay: cells; format: functional, cell-based; details: Homo sapiens;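 note: cell growth inhibition, read out with a cell viability assay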
Description: SANGER: Inhibition of human SKG-IIIa cell growth in a cell viability assay.

AN3-CA = assay: cells; format: functional, cell-based; details: Homo sapiens;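 note: growth inhibition of human AN3-CA cells measured by a cell viability assay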
Description: SANGER: Inhibition of human AN3-CA cell growth in a cell viability assay.

GMS-10 = assay: cells; format: functional, cell-based; details: Homo sapiens;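 note: growth inhibition of GMS-10 cells, read out as cell viability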
Description: SANGER: Inhibition of human GMS-10 cell growth in a cell viability assay.

BHY = assay: cells; format: functional, cell-based; details: Homo sapiens;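 note: cell growth inhibition read out by a viability assay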
Description: SANGER: Inhibition of human BHY cell growth in a cell viability assay.

HuCCT-1 = assay: cells; format: functional, cell-based, HuCCT1; details: Homo sapiens;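 note: growth inhibition of HuCCT-1 cells, read out by a cell viability assay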
Description: SANGER: Inhibition of human HuCCT1 cell growth in a cell viability assay.

SR = assay: cells; format: functional, cell-based; details: Homo sapiens
Description: SANGER: Inhibition of human SR cell growth in a cell viability assay.

EVSA-T = assay: cells; format: functional, cell-based; details: Homo sapiens;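 note: growth inhibition of EVSA-T cells, read out with a cell viability assay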
Description: SANGER: Inhibition of human EVSA-T cell growth in a cell viability assay.

KMS-12-PE = assay: cells; format: functional, cell-based; details: Homo sapiens;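 note: growth inhibition of human KMS-12-PE cells, measured with a cell viability assay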
Description: SANGER: Inhibition of human KMS-12-PE cell growth in a cell viability assay.

NY = assay: cells; format: functional, cell-based; details: Homo sapiens
Description: SANGER: Inhibition of human NY cell growth in a cell viability assay.

SK-MEL3 = assay: cells; format: functional, cell-based, SK-MEL-3; details: Homo sapiens;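 note: growth inhibition of human SK-MEL-3 cells, read out with a cell viability assay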
Description: SANGER: Inhibition of human SK-MEL-3 cell growth in a cell viability assay.

SK-MEL-28 = assay: cells; format: functional, cell-based; details: Homo sapiens;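 note: growth inhibition of human SK-MEL-28 cells, read out with a cell viability assay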
Description: SANGER: Inhibition of human SK-MEL-28 cell growth in a cell viability assay.

HLE = assay: cells; format: functional, cell-based; details: Homo sapiens;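 note: growth inhibition of human HLE cells, read out by a cell viability assay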
Description: SANGER: Inhibition of human HLE cell growth in a cell viability assay.

NCI-H1417 = assay: cells; format: functional, cell-based; details: Homo sapiens;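 note: human NCI-H1417 cells, growth inhibition determined with a cell viability readout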
Description: SANGER: Inhibition of human NCI-H1417 cell growth in a cell viability assay.

HCC1395 = assay: cells; format: functional, cell-based; details: Homo sapiens;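 note: growth inhibition of HCC1395 cells, read out by a cell viability assay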
Description: SANGER: Inhibition of human HCC1395 cell growth in a cell viability assay.

KOSC-2 = assay: cells; format: functional, cell-based; details: Homo sapiens;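 note: growth inhibition of KOSC-2 cells, read out by a cell viability assay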
Description: SANGER: Inhibition of human KOSC-2 cell growth in a cell viability assay.

SCLC-21H = assay: cells; format: functional, cell-based; details: Homo sapiens;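 note: growth inhibition of cultured human SCLC-21H cells, read out with a cell viability assay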
Description: SANGER: Inhibition of human SCLC-21H cell growth in a cell viability assay.

CA46 = assay: cells; format: functional, cell-based; details: Homo sapiens;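 note: growth inhibition of human CA46 cells, read out by a cell viability assay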
Description: SANGER: Inhibition of human CA46 cell growth in a cell viability assay.

NCI-H2405 = assay: cells; format: functional, cell-based; details: Homo sapiens;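 note: growth inhibition of the human cell line, read out with a cell viability assay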
Description: SANGER: Inhibition of human NCI-H2405 cell growth in a cell viability assay.

C32 = assay: cells; format: functional, cell-based; details: Homo sapiens;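 note: cell viability assay, with IC50 reflecting inhibition of C32 cell growth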
Description: SANGER: Inhibition of human C32 cell growth in a cell viability assay.

NCI-H1793 = assay: cells; format: functional, cell-based; details: Homo sapiens;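 note: cell growth inhibition, read out by a cell viability assay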
Description: SANGER: Inhibition of human NCI-H1793 cell growth in a cell viability assay.

MEL-JUSO = assay: cells; format: functional, cell-based; details: Homo sapiens;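 note: growth inhibition of human MEL-JUSO cells, read out with a cell viability assay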
Description: SANGER: Inhibition of human MEL-JUSO cell growth in a cell viability assay.

HSC-2 = assay: cells; format: functional, cell-based; details: Homo sapiens;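 note: growth inhibition of human HSC-2 cells, read out by a cell viability assay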
Description: SANGER: Inhibition of human HSC-2 cell growth in a cell viability assay.

SK-MES-1 = assay: cells; format: functional, cell-based; details: Homo sapiens;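 note: growth inhibition of human SK-MES-1 cells, read out with a cell viability assay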
Description: SANGER: Inhibition of human SK-MES-1 cell growth in a cell viability assay.

MEL-HO = assay: cells; format: functional, cell-based; details: Homo sapiens
Description: SANGER: Inhibition of human MEL-HO cell growth in a cell viability assay.

KYSE-140 = assay: cells; format: functional, cell-based; details: Homo sapiens;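 note: cell viability assay measuring growth inhibition in human KYSE-140 cells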
Description: SANGER: Inhibition of human KYSE-140 cell growth in a cell viability assay.

ECC4 = assay: cells; format: functional, cell-based; details: Homo sapiens;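 note: growth inhibition of ECC4 cells, read out with a cell viability assay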
Description: SANGER: Inhibition of human ECC4 cell growth in a cell viability assay.

BC-3 = assay: cells; format: functional, cell-based; details: Homo sapiens;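 note: cell viability assay measuring growth inhibition of human BC-3 cells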
Description: SANGER: Inhibition of human BC-3 cell growth in a cell viability assay.

NCCIT = assay: SANGER: Inhibition of human NCCIT cell growth in a cell viability assay.; format: functional, cell-based
CAL-27 = assay: cells; format: functional, cell-based; details: Homo sapiens;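 note: Viability-based readout, IC50 reflecting inhibition of CAL-27 cell growth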
Description: SANGER: Inhibition of human CAL-27 cell growth in a cell viability assay.

HOP-92 = assay: cells; format: functional, cell-based; details: Homo sapiens;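 note: cell viability readout, with IC50 reflecting inhibition of HOP-92 cell growth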
Description: SANGER: Inhibition of human HOP-92 cell growth in a cell viability assay.

NCI-H2171 = assay: cells; format: functional, cell-based; details: Homo sapiens;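 note: growth inhibition of human NCI-H2171 cells, read out by a cell viability assay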
Description: SANGER: Inhibition of human NCI-H2171 cell growth in a cell viability assay.

TALL-1 = assay: cells; format: functional, cell-based; details: Homo sapiens;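 note: growth inhibition of cultured human TALL-1 cells, read out by a cell viability assay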
Description: SANGER: Inhibition of human TALL-1 cell growth in a cell viability assay.

NCI-H2170 = assay: cells; format: functional, cell-based; details: Homo sapiens;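 note: cell viability assay measuring growth inhibition of human NCI-H2170 cancer cells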
Description: SANGER: Inhibition of human NCI-H2170 cell growth in a cell viability assay.

D-392MG = assay: cells; format: functional, cell-based; details: Homo sapiens
COR-L23 = assay: cells; format: functional, cell-based; details: Homo sapiens;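 note: cell viability assay measuring how strongly compounds suppress growth of COR-L23 cells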
Description: SANGER: Inhibition of human COR-L23 cell growth in a cell viability assay.

HEC-1 = assay: cells; format: functional, cell-based; details: Homo sapiens;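 note: growth inhibition of the cell line, read out with a cell viability assay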
Description: SANGER: Inhibition of human HEC-1 cell growth in a cell viability assay.

SIG-M5 = assay: cells; format: functional, cell-based; details: Homo sapiens;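 note: cell viability assay read-out, measuring how strongly growth of cultured human SIG-M5 cells is inhibited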
Description: SANGER: Inhibition of human SIG-M5 cell growth in a cell viability assay.

NUGC-3 = assay: cells; format: functional, cell-based; details: Homo sapiens;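 note: growth inhibition of human NUGC-3 cells, read out with a cell viability assay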
Description: SANGER: Inhibition of human NUGC-3 cell growth in a cell viability assay.

MDA-MB-361 = assay: cells; format: functional, cell-based; details: Homo sapiens
LoVo = assay: cells; format: functional, cell-based; details: Homo sapiens;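 note: growth inhibition of human LoVo cells, read out with a cell viability assay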
Description: SANGER: Inhibition of human LoVo cell growth in a cell viability assay.

MKN-7 = assay: cells; format: functional, cell-based; details: Homo sapiens;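 note: growth inhibition of MKN-7 cells, read out with a cell viability assay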
Description: SANGER: Inhibition of human MKN7 cell growth in a cell viability assay.

PF-382 = assay: cells; format: functional, cell-based; details: Homo sapiens
Description: SANGER: Inhibition of human PF-382 cell growth in a cell viability assay.

OPM-2 = assay: cells; format: functional, cell-based; details: Homo sapiens
Description: SANGER: Inhibition of human OPM-2 cell growth in a cell viability assay.

NCI-N87 = assay: cells; format: functional, cell-based; details: Homo sapiens
Description: SANGER: Inhibition of human NCI-N87 cell growth in a cell viability assay.

YKG-1 = assay: cells; format: functional, cell-based; details: Homo sapiens
Description: SANGER: Inhibition of human YKG-1 cell growth in a cell viability assay.

SNU-387 = assay: cells; format: functional, cell-based; details: Homo sapiens
Description: SANGER: Inhibition of human SNU-387 cell growth in a cell viability assay.

AU565 = assay: cells; format: functional, cell-based; details: Homo sapiens
Description: SANGER: Inhibition of human AU565 cell growth in a cell viability assay.

HCC1599 = assay: cells; format: functional, cell-based; details: Homo sapiens
Description: SANGER: Inhibition of human HCC1599 cell growth in a cell viability assay.

Compound: O=c1[nH]c2ccccc2n1C1CCN(Cc2ccc(-c3nc4cc5[nH]cnc5cc4nc3-c3ccccc3)cc2)CC1
- IC50 (A-375): > 2.56 µM
- IC50 (HCC1954): > 2.56 µM
- IC50 (KYSE-180): > 2.56 µM
- IC50 (BL-41): > 2.56 µM
- IC50 (U-118-MG): > 2.56 µM
- IC50 (MFE-280): > 2.56 µM
- IC50 (HT-3): > 2.56 µM
- IC50 (GCT): > 2.56 µM
- IC50 (CESS): > 2.56 µM
- IC50 (HSC-4): > 2.56 µM
- IC50 (KYSE-270): > 2.56 µM
- IC50 (T84): > 2.56 µM
- IC50 (CAKI-1): > 2.56 µM
- IC50 (NCI-H358): > 2.56 µM
- IC50 (U2OS): > 2.56 µM
- IC50 (OVCAR-8): > 2.56 µM
- IC50 (SKG-IIIa): > 2.56 µM
- IC50 (AN3-CA): 1.66 µM
- IC50 (GMS-10): > 2.56 µM
- IC50 (BHY): > 2.56 µM
- IC50 (HuCCT-1): > 2.56 µM
- IC50 (SR): > 2.56 µM
- IC50 (EVSA-T): > 2.56 µM
- IC50 (KMS-12-PE): > 2.56 µM
- IC50 (NY): > 2.56 µM
- IC50 (SK-MEL3): > 2.56 µM
- IC50 (SK-MEL-28): > 2.56 µM
- IC50 (HLE): > 2.56 µM
- IC50 (NCI-H1417): > 2.56 µM
- IC50 (HCC1395): > 2.56 µM
- IC50 (KOSC-2): > 2.56 µM
- IC50 (SCLC-21H): > 2.56 µM
- IC50 (CA46): > 2.56 µM
- IC50 (NCI-H2405): > 2.56 µM
- IC50 (C32): > 2.56 µM
- IC50 (NCI-H1793): > 2.56 µM
- IC50 (MEL-JUSO): > 2.56 µM
- IC50 (HSC-2): > 2.56 µM
- IC50 (SK-MES-1): 2.1 µM
- IC50 (MEL-HO): > 2.56 µM
- IC50 (KYSE-140): > 2.56 µM
- IC50 (ECC4): > 2.56 µM
- IC50 (BC-3): > 2.56 µM
- IC50 (NCCIT): > 2.56 µM
- IC50 (CAL-27): > 2.56 µM
- IC50 (HOP-92): > 2.56 µM
- IC50 (NCI-H2171): > 2.56 µM
- IC50 (TALL-1): > 2.56 µM
- IC50 (NCI-H2170): > 2.56 µM
- IC50 (D-392MG): > 2.56 µM
- IC50 (COR-L23): > 2.56 µM
- IC50 (HEC-1): > 2.56 µM
- IC50 (SIG-M5): > 2.56 µM
- IC50 (NUGC-3): > 2.56 µM
- IC50 (MDA-MB-361): 0.49 µM
- IC50 (LoVo): > 2.56 µM
- IC50 (MKN-7): > 2.56 µM
- IC50 (PF-382): > 2.56 µM
- IC50 (OPM-2): > 2.56 µM
- IC50 (NCI-N87): > 2.56 µM
- IC50 (YKG-1): 1.02 µM
- IC50 (SNU-387): > 2.56 µM
- IC50 (AU565): 1.24 µM
- IC50 (HCC1599): > 2.56 µM

Compound: Fc1cc(-c2cc[nH]/c(=N/c3ccc(-n4cnc(N5CCOCC5)n4)cc3)n2)cc(N2CCOCC2)c1
- IC50 (A-375): 0.623 µM
- IC50 (HCC1954): 1.22 µM
- IC50 (KYSE-180): 0.272 µM
- IC50 (BL-41): 0.307 µM
- IC50 (U-118-MG): > 5.12 µM
- IC50 (MFE-280): > 5.12 µM
- IC50 (HT-3): 0.102 µM
- IC50 (GCT): 0.204 µM
- IC50 (CESS): 0.341 µM
- IC50 (HSC-4): 4.25 µM
- IC50 (KYSE-270): 0.222 µM
- IC50 (T84): 1.52 µM
- IC50 (CAKI-1): 0.334 µM
- IC50 (NCI-H358): 0.377 µM
- IC50 (U2OS): > 5.12 µM
- IC50 (OVCAR-8): 0.412 µM
- IC50 (SKG-IIIa): 4.89 µM
- IC50 (AN3-CA): 0.335 µM
- IC50 (GMS-10): 2.84 µM
- IC50 (BHY): 0.51 µM
- IC50 (HuCCT-1): 0.554 µM
- IC50 (SR): 0.122 µM
- IC50 (EVSA-T): 1.27 µM
- IC50 (KMS-12-PE): 1.16 µM
- IC50 (NY): 0.623 µM
- IC50 (SK-MEL3): 0.877 µM
- IC50 (SK-MEL-28): > 5.12 µM
- IC50 (HLE): 0.624 µM
- IC50 (NCI-H1417): > 5.12 µM
- IC50 (HCC1395): 0.413 µM
- IC50 (KOSC-2): 0.531 µM
- IC50 (SCLC-21H): > 5.12 µM
- IC50 (CA46): 0.333 µM
- IC50 (NCI-H2405): 1.21 µM
- IC50 (C32): > 5.12 µM
- IC50 (NCI-H1793): 1.21 µM
- IC50 (MEL-JUSO): 0.286 µM
- IC50 (HSC-2): 0.223 µM
- IC50 (SK-MES-1): 0.153 µM
- IC50 (MEL-HO): 0.19 µM
- IC50 (KYSE-140): 1.05 µM
- IC50 (ECC4): 2.73 µM
- IC50 (BC-3): 0.598 µM
- IC50 (NCCIT): 0.398 µM
- IC50 (CAL-27): 0.066 µM
- IC50 (HOP-92): 2.41 µM
- IC50 (NCI-H2171): 0.792 µM
- IC50 (TALL-1): > 5.12 µM
- IC50 (NCI-H2170): 0.745 µM
- IC50 (D-392MG): 1.93 µM
- IC50 (COR-L23): 1 µM
- IC50 (HEC-1): 2.15 µM
- IC50 (SIG-M5): 0.124 µM
- IC50 (NUGC-3): 0.687 µM
- IC50 (MDA-MB-361): 1.07 µM
- IC50 (LoVo): 0.437 µM
- IC50 (MKN-7): 3.14 µM
- IC50 (PF-382): 0.476 µM
- IC50 (OPM-2): 0.514 µM
- IC50 (NCI-N87): > 5.12 µM
- IC50 (YKG-1): 0.724 µM
- IC50 (SNU-387): 0.417 µM
- IC50 (AU565): 0.285 µM
- IC50 (HCC1599): 0.466 µM
